# Test system: not listed separately
# Experiment: Apparent permeability in pig LLC-PK1 cells by LC-MS/MS analysis
# Type: ADME, cell-based, Sus scrofa
row,Papp [×10⁻⁶ cm/s],SMILES
1,33,C[C@@]1(c2cc(-c3cncnc3)c(F)cc2F)CCSC(N)=N1 [LY-2811376]
2,23,C[C@@]1(c2cc(NC(=O)c3ccc(C#N)cn3)ccc2F)C=CSC(N)=N1 [ATABECESTAT]

# Target: Beta-secretase 1 (Homo sapiens, UniProt P56817)
# Experiment: Inhibition of BACE1 (unknown origin) by HTRF assay
# Chain of Beta-secretase 1 (P56817 whole entry): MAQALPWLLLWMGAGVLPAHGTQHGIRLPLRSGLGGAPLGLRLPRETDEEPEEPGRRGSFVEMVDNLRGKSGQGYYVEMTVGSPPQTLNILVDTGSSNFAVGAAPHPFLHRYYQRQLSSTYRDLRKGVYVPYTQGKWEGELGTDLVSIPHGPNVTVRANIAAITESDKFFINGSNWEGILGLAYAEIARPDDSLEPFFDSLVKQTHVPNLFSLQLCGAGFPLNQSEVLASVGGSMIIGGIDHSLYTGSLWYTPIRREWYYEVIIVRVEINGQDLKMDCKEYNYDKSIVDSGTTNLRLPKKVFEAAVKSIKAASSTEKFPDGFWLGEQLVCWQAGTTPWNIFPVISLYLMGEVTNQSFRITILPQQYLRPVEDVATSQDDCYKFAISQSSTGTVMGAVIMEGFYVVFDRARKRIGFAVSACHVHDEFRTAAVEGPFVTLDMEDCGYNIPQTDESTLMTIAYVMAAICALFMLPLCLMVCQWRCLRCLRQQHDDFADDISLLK
row,IC50 [nM],SMILES
1,241,COc1cnc(C(=O)Nc2ccc(F)c([C@]3(C)C=C(CF)OC(N)=N3)c2)nc1
2,155,C[C@@]1(c2cc(NC(=O)c3ncc(C#N)cc3F)ccc2F)C=C(CF)OC(N)=N1
3,491,COc1cnc(C(=O)Nc2ccc(F)c([C@]3(C)C=C(CF)OC(N)=N3)c2)c(C)n1
4,82.3,C[C@@]1(c2cc(NC(=O)c3ccn(C(F)F)n3)ccc2F)C=C(CF)OC(N)=N1
